Data as given in publication PMC10178848, “Modulating fast skeletal muscle contraction protects skeletal muscle in animal models of Duchenne muscular dystrophy” (The Journal of Clinical Investigation, 2023).

How the values were obtained:
[1] = target: T1, bovine cardiac myofibrils (Bos taurus, UniProt Q9BE39); test: Myofibril ATPase, bovine cardiac; assay type: biochemical; conditions: bovine cardiac ventricle; at pCa50
T1 construct: from tissue; host or cells: bovine cardiac ventricle
Description: (§1) Myofibrils were prepared from various animals and tissues: rabbit psoas muscle and porcine cardiac muscle were purchased from Pel-Freez Biologicals. Human bicep and soleus muscle were purchased from BioIVT, and neonatal rat muscle was obtained in house. All myofibrils were prepared using published methods ([21]).
(§2) A lactate dehydrogenase/pyruvate kinase enzyme-coupled system ([62]) was used to monitor ATP hydrolysis rates in various muscle preparations. Rabbit psoas myofibrils were used for high-throughput screening at pCa 6.25 at 0.25 mg/mL. A multidrop cassette (Thermo Fisher Scientific) dispensed 10 μL of the coupled enzyme system, calcium, and myofibrils to 10 μL ATP, NADH and PEP to initiate the reaction prior to reading on a plate reader (Envision, Perkin Elmer) for 10 minutes per plate at room temperature. Hits were reconfirmed, and secondary assays were used to evaluate selectivity, including bovine cardiac myofibrils (pCa 5.86) and enzyme coupled hits with a hexokinase screen (Sigma-Aldrich).

[2] = target: T2, slow bovine masseter skeletal myofibrils (Bos taurus, UniProt Q9BE39); test: Myofibril ATPase, bovine masseter; assay type: biochemical; conditions: 100% type I, at pCa50
T2 construct: from tissue; host or cells: bovine masseter muscle
T2 sequence (Q9BE39 whole entry): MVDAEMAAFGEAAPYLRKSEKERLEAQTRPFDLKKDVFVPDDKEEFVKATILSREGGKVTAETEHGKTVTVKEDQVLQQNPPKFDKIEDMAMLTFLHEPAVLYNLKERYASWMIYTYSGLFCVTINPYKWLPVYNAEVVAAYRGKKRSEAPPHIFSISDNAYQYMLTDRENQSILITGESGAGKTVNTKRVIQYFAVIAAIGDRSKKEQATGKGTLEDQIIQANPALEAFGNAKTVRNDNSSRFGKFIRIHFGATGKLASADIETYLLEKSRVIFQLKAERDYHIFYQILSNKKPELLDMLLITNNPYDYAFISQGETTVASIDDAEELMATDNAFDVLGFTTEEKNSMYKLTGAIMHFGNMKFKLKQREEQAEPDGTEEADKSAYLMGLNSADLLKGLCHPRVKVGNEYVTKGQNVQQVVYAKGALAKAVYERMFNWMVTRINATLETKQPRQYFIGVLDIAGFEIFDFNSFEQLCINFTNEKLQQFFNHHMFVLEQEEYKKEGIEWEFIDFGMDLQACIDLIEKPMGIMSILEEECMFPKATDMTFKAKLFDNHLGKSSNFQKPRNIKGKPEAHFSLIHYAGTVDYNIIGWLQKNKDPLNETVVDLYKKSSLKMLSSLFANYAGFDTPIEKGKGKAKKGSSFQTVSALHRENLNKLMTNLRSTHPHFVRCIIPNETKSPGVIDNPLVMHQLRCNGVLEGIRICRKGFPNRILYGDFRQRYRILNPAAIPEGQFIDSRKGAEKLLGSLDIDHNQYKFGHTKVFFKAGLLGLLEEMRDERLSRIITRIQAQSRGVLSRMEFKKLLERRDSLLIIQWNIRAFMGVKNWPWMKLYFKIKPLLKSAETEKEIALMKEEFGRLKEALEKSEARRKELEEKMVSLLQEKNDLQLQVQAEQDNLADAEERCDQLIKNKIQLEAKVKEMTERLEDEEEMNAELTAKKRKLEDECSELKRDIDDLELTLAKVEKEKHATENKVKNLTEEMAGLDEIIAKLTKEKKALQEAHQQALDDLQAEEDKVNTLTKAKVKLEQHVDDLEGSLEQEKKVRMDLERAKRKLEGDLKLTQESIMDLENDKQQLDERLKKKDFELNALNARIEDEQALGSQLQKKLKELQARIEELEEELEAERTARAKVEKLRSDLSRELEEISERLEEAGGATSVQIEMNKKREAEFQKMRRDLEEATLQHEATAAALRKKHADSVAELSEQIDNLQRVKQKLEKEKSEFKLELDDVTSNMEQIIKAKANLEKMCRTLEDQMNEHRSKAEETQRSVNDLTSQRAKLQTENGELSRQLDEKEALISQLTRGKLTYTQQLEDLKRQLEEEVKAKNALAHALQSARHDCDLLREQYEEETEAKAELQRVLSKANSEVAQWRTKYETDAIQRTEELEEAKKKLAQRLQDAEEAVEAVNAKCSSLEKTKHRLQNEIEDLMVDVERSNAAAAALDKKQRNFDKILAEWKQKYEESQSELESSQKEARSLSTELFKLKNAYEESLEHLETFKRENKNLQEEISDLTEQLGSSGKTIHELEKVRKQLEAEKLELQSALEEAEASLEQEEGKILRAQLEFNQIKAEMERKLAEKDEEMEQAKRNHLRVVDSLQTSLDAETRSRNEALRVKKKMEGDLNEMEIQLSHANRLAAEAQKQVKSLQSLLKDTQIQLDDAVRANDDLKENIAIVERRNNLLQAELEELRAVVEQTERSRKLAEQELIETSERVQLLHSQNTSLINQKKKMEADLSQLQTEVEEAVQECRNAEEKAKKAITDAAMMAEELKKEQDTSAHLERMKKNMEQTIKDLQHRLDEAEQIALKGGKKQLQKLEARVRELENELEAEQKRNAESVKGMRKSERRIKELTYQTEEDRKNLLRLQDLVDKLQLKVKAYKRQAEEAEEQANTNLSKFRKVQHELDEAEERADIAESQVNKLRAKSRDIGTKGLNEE
T2 sequence (P85100 whole entry partner): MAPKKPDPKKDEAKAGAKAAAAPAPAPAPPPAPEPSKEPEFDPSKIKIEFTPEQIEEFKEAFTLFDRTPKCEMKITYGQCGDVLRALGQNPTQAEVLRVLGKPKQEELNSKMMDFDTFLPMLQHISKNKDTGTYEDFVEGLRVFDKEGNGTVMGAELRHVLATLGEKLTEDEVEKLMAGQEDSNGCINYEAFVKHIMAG
T2 sequence (Q3SZE5 whole entry partner): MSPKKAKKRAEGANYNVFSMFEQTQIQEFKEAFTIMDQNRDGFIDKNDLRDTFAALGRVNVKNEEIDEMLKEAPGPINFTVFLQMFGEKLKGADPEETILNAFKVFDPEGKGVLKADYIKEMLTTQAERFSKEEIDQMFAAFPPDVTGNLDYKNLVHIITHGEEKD

[3] = target: mouse TA myofibrils; test: Myofibril ATPase, mouse TA; assay type: biochemical; conditions: mixed IIa, IIx, IIb
[4] = test system: Neonatal Rat (P1) myofibrils; test: Myofibril ATPase, neonatal rat; assay type: biochemical
Description: as §1, §2

[5] = test system: Human Bicep myofibrils; test: Myofibril ATPase, human bicep; assay type: biochemical
Description: as §1, §2

[6] = test system: psoas S1 (fast skeletal muscle myosin); test: Stopped-flow analysis of Pi release from myosin; assay type: biochemical, rabbit; parameters: dose or concentration left out as unconfirmed; conditions: preincubation with myosin 30 minutes prior to actin
Description: The rate of Pi release from myosin with actin utilized a fluorescent phosphate binding protein, as described previously ([63]). Experiments were performed in 10 mM MOPS, pH 7.0; 5 mM KCL; 1 mM EGTA; 1 mM DTT; 0.5 mM MgCl2. ATP and ADP were removed by incubation with apyrase ([64]). Prior to mixing with 1 mM ATP in a stopped flow device, compound was incubated with 6 μM psoas S1 at 25°C for 30 minutes.

[7] = test system: young mdx mice; test: 3-week dosing of young (weaning) mdx mice, soleus histology; assay type: in vivo, mouse; conditions: post-weaning mdx mice, 3 weeks
Text: C57BL/6 (stock no. 000664), C57BL/10J (stock no. 000665, control for mdx experiments), C57BL/10ScSn-Dmd^mdx/J (mdx, stock no. 001801), and D2.B10 (DBA/2-congenic) Dmd^mdx (DBA/2J mdx, stock no. 013141) mice were from The Jackson Laboratory. Sprague-Dawley rats were purchased from Charles River Laboratories. For ex vivo experiments, mice were 10–16 weeks old. For in situ experiments, mice were 8–14 weeks of age. For in vivo chronic dosing studies, mdx and DBA/2J mdx were 4–5 weeks of age at study start. Dosing was via a 10 mL/kg suspension (1% methyl cellulose, 0.1% Tween 80 in water). For studies in 14-day-old preweaning mice, PO dosing was via syrup suspension (3 mg/kg/d). […]
For sterile muscle injury, mice were anesthetized with isoflurane and 50 μL cardiotoxin (12 × 10^–6 M, 217503, Millipore) injected in the TA muscle. […] 8 μm cryosections were cut and stained with H&E. For each analysis, more than 10 slides (per condition/group) containing 6 muscle sections/sample were used, and myofibers in the injured area were counted and measured with a Mirax digital scanner and HALO software ([68]). […] Image analysis was performed using ImarisX64 software (Bitplane AG), and fiber sizing was calculated using minimal Feret’s diameter ([69]). […] Fiber type, size, and central nucleation were quantified with analysis via SMASH ([70]) and ImageJ (NIH). […]

[8] = test system: mdx mouse gastrocnemius muscle; test: RNA-Seq analysis of gastrocnemius muscle; assay type: in vivo
Description: RNA-Seq was performed with isolated single nuclei using the 10X Genomics Chromium Single Cell 3’ Protocol, Accessories, and Kits (CG000183 Rev A). Data were then analyzed by Rosalind (https://rosalind.onramp.bio/), with a HyperScale architecture developed by OnRamp BioInformatics Inc. Data have been submitted to the Gene Expression Omnibus (GEO) database at the NIH (accession GSE227510).

[9] = test system: healthy mice, TA muscle; test: Cardiotoxin sterile muscle injury repair; assay type: in vivo, mouse; conditions: day 8 post injury
Description: For sterile muscle injury, mice were anesthetized with isoflurane and 50 μL cardiotoxin (12 × 10^–6 M, 217503, Millipore) injected in the TA muscle. Muscles 8 days after injury were snap frozen in nitrogen-chilled isopentane. 8 μm cryosections were cut and stained with H&E. For each analysis, more than 10 slides (per condition/group) containing 6 muscle sections/sample were used, and myofibers in the injured area were counted and measured with a Mirax digital scanner and HALO software ([68]). For adult mouse studies, muscles were fixed in 10% formalin and embedded in paraffin for sectioning. Laminin staining (RB-082, Thermo Fisher Scientific) was used to outline fibers, and picrosirius red was used for collagen accumulation. Image analysis was performed using ImarisX64 software (Bitplane AG), and fiber sizing was calculated using minimal Feret’s diameter ([69]). For after weaning juvenile mouse studies, cryosections from soleus muscles were mounted in ProLong antifade mountant with DAPI (Thermo Fisher Scientific). Fiber type, size, and central nucleation were quantified with analysis via SMASH ([70]) and ImageJ (NIH). Antibodies used were mouse anti-MHC2A (1:50, SC-71, Developmental Studies Hybridoma Bank) and mouse anti-eMHC (1:10, BF-45, Developmental Studies Hybridoma Bank).

[10] = target: T3, ABL1(T315I)-phosphorylated (Homo sapiens, UniProt P00519, T315I); test: KINOMEscan scanEDGE; assay type: binding; conditions: 20 uM
T3 construct: purchased Eurofins DiscoverX (KINOMEscan; SAFETYscan E/IC50 ELECT)

[11] = target: T4, CDK9 (Homo sapiens, UniProt P50750); test: KINOMEscan scanEDGE; assay type: binding; conditions: 20 uM
T4 construct: purchased Eurofins DiscoverX (KINOMEscan; SAFETYscan E/IC50 ELECT)
T4 sequence (P50750 whole entry): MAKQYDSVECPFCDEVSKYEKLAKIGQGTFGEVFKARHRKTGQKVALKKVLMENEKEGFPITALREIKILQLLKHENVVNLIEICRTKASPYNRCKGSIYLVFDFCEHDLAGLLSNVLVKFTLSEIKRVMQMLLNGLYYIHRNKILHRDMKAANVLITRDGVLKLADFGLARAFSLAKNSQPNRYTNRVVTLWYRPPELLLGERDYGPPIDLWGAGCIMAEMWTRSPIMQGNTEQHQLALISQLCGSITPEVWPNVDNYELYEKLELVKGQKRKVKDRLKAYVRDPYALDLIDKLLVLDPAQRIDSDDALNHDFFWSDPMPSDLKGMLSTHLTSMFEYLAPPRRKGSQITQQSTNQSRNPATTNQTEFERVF

[12] = target: T5, CHEK1 (Homo sapiens, UniProt O14757); test: KINOMEscan scanEDGE; assay type: binding; conditions: 20 uM
T5 construct: purchased Eurofins DiscoverX (KINOMEscan; SAFETYscan E/IC50 ELECT)
T5 sequence (O14757 whole entry): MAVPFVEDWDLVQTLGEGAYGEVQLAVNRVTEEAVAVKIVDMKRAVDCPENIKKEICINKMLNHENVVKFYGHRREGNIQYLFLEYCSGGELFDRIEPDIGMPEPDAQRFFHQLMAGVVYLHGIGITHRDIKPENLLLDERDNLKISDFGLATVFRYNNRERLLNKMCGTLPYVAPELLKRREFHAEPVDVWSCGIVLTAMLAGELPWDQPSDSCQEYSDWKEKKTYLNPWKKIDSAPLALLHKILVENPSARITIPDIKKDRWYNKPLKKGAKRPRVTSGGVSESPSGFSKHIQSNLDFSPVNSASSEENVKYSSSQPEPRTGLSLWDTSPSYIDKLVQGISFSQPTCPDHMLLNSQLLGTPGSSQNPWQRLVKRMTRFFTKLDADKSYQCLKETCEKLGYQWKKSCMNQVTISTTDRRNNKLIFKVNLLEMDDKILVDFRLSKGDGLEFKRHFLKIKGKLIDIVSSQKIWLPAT

[13] = target: T6, INSR (Homo sapiens, UniProt P06213); test: KINOMEscan scanEDGE; assay type: binding; conditions: 20 uM
T6 construct: purchased Eurofins DiscoverX (KINOMEscan; SAFETYscan E/IC50 ELECT)
T6 sequence (P06213 28-1382): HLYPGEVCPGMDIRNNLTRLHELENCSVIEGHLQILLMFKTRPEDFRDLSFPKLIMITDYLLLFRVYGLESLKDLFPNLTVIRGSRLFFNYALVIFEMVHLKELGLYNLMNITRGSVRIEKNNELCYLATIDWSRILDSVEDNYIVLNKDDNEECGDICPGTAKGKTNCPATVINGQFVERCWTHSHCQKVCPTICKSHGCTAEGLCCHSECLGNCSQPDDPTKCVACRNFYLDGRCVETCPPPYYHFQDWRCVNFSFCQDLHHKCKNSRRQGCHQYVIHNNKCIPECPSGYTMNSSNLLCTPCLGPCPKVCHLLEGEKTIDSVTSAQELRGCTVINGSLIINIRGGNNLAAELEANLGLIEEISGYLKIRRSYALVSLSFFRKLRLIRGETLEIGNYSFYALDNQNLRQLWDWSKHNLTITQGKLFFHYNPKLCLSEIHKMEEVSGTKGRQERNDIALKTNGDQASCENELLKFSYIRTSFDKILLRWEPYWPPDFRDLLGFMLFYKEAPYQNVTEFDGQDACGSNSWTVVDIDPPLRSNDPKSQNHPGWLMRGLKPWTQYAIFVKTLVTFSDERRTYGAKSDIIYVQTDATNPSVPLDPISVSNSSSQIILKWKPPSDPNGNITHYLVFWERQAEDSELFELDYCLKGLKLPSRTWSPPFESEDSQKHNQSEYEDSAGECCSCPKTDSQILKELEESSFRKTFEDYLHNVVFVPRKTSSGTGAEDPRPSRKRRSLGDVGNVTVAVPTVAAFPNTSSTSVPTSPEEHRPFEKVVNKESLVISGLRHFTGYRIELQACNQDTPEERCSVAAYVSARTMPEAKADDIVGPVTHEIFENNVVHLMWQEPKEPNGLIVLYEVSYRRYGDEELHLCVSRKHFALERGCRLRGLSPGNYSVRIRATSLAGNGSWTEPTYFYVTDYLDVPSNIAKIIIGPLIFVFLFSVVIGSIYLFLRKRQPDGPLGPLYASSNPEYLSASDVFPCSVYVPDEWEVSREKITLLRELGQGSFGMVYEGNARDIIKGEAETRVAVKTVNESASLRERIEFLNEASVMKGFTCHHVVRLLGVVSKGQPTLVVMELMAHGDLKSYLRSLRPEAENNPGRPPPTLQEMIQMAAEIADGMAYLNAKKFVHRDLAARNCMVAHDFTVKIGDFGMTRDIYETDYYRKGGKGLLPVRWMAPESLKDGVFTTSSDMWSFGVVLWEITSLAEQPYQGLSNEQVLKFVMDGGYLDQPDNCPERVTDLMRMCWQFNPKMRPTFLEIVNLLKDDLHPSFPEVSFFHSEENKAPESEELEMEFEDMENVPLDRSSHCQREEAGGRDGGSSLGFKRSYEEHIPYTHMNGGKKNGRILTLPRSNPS

[14] = target: T7, MEK2 (Homo sapiens, UniProt P36507); test: KINOMEscan scanEDGE; assay type: binding; conditions: 20 uM
T7 construct: purchased Eurofins DiscoverX (KINOMEscan; SAFETYscan E/IC50 ELECT)

[15] = mdx EDG-5506 3 mg/kg vs mdx Control

T1 sequence (Q9BE39 whole entry): as the sequence (Q9BE39 whole entry) above
T1 sequence (P85100 whole entry partner): as the sequence (P85100 whole entry partner) above
T1 sequence (Q3SZE5 whole entry partner): as the sequence (Q3SZE5 whole entry partner) above

Structure (SMILES): O=c1ccc(-c2cnc(OCC(F)(F)F)nc2)nn1Cc1cncc(F)c1 [EDG-5506]
- IC50 [1]: > 100000 nM
- IC50 [2]: > 100000 nM
- IC50 [3]: 400 nM
- Maximum Inhibition (%) ([4]; neonatal rat (P1) myofibrils): 96%
- IC50 ([4]; neonatal rat (P1), 100% neonatal/embryonic MHC): 200 nM
- Maximum Inhibition (%) ([5]; human bicep myofibrils): 89%
- IC50 ([5]; human bicep, 50% Type I, 50% IIa, IIx): 1200 nM
- rate of Pi release from myosin with actin [6]: decreased the rate of Pi release
- central nucleation in soleus [7]: decreased central nucleation
- log2FoldChange Chrng ([8]; mdx EDG-5506 3 mg/kg vs WT): 0.42
- log2FoldChange Igfn1 ([8]; mdx EDG-5506 3 mg/kg vs WT): 2.931
- log2FoldChange Katnal2 ([8]; mdx EDG-5506 3 mg/kg vs WT): 1.899
- log2FoldChange Myh8 ([8]; mdx EDG-5506 3 mg/kg vs WT): 0.5674
- log2FoldChange Myl4 ([8]; mdx EDG-5506 3 mg/kg vs WT): 1.684
- log2FoldChange Chrng [8, 15]: -0.2866
- log2FoldChange Igfn1 [8, 15]: -0.9018
- log2FoldChange Katnal2 [8, 15]: -0.9377
- log2FoldChange Myh8 [8, 15]: -0.538
- log2FoldChange Myl4 [8, 15]: -1.31
- skeletal muscle transcription profile ([8]; mdx mice, 8 weeks): returned the skeletal muscle transcription profile closer to that of WT mice
- muscle repair after cardiotoxin injury [9]: did not interfere with muscle repair
- binding, % of control [10]: 94 % of control
- binding, % of control [11]: 96 % of control
- binding, % of control [12]: 100 % of control
- binding, % of control [13]: 96 % of control
- binding, % of control [14]: 72 % of control
